Measurements published in patent publication US20020048549A1, “Radioactive transition metal nitride heterocomplex” (priority 1996, published 2002).

Experiment: Stability of the complex / its solution after preparation
Format: physicochemical
Details: reaction solution after preparation
Description: In a mixture of 0.6 ml of ethanol and […] ( 1 mol/l) of an aqueous HCl solution were dissolved 5 mg of SDH and 1.5 mg of PNP, followed by adding thereto a physiologically acceptable ^99mTcO4^− solution ( 0.5 ml, 50 MBq). The resulting mixture was heated at 80° C. for 20 minutes and then cooled to 40° C., after which 0.25 ml of HCO3^−/CO3^2− buffer was added thereto to adjust the pH at about 8.0. Subsequently, a solution of 0.5 mg of βglu in 1.5 ml of water was added. The complex finally obtained was analyzed by […] and HPLC. […] The radiochemical purity of the final complex was higher than 95%. […]
In a mixture of 0.6 ml of ethanol and […] ( 1 mol/l) of an aqueous HCl solution were dissolved 5 mg of SDH and 1.5 mg of PNP, followed by adding thereto a physiologically acceptable ^99mTcO4 solution ( 0.5 ml, 50 MBq). […] The complex finally obtained was analyzed by HTLC and HPLC. […]
In a mixture of 0.6 ml of ethanol and 0.1 mg (1 mol/l) of an aqueous HCl solution were dissolved 5 mg of SDH and 1.5 mg of PNP, followed by adding thereto a physiologically acceptable ^99mTcO4^− solution (0.5 ml, 50 MBq). […] The complex finally obtained was analyzed by HTLC and HPLC. […]

CCN1CC[PH](c2ccccc2)(c2ccccc2)[99Tc]2(#[N])([O]C(=O)c3ccccc3[S]2)[PH](c2ccccc2)(c2ccccc2)CC1 [Example 3]
stability of the complex / solution of the complex: stable

CCON(CC)C1=[S+][99Tc]2(#[N])([S]1)[PH](c1ccccc1)(c1ccccc1)CCN(CC)CC[PH]2(c1ccccc1)c1ccccc1 [Example 4]
stability of the complex / solution of the complex: stable
